Data: PubChem BioAssay AID248 (DTP/NCI, 2004)
Where “and” joins values, the source holds several entries; their conditions need not be identical. Equal entries are not always repeated. Inconclusive results and toxic doses are left out. No stated cut-off is given here; in the data, active means T/C of 150% or more; inactive means T/C below 125%.

System: L1210 leukemia ip in BDF1 mice, survival T/C
Experiment: NCI In Vivo Anticancer Drug Screen. Data for tumor model L1210 Leukemia (intraperitoneal) in B6D2F1 (BDF1) mice
Settings: endpoint: mean survival time, higher = longer survival
How it was run: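 Mice bearing the transplanted tumor received compound or vehicle. Survival of the treated group was divided by that of the vehicle-treated control group to give the ratio.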

[1] = dose: 12.5 mg/kg/injection, schedule: Q04DX003 (ip), vehicle: saline
[2] = dose: 100.0 mg/kg/injection, schedule: Q01DX009 (ip), vehicle: saline
[3] = dose: 200.0 mg/kg/injection, schedule: Q01DX009 (ip), vehicle: saline
[4] = dose: 50.0 mg/kg/injection, schedule: Q01DX001 (ip), vehicle: saline
[5] = dose: 100.0 mg/kg/injection, schedule: Q01DX001 (ip), vehicle: saline
[6] = dose: 200.0 mg/kg/injection, schedule: Q01DX001 (ip), vehicle: saline
[7] = dose: 100.0 mg/kg/injection, schedule: Q04DX003 (ip), vehicle: saline
[8] = dose: 200.0 mg/kg/injection, schedule: Q04DX003 (ip), vehicle: saline
[9] = dose: 400.0 mg/kg/injection, schedule: Q04DX003 (ip), vehicle: saline
[10] = dose: 60.0 mg/kg/injection, schedule: Q01DX001 (ip), vehicle: carboxymethylcellulose (CMC)
[11] = dose: 400.0 mg/kg/injection, schedule: Q01DX001 (ip), vehicle: saline

Measured: T/C

CCCCNc1cc2c3c(c1)CCCN3CCC2
inactive: dose: 12.5 mg/kg/injection, schedule: Q01DX009 (ip), vehicle: saline 107 % of control | [1] 95 % of control | dose: 25.0 mg/kg/injection, schedule: Q01DX009 (ip), vehicle: saline 103 % of control | dose: 25.0 mg/kg/injection, schedule: Q04DX003 (ip), vehicle: saline 98 % of control | dose: 50.0 mg/kg/injection, schedule: Q04DX003 (ip), vehicle: saline 95 % of control

CCCCOB(OCCCC)c1cccc(C(F)(F)F)c1
inactive: [2] 100 % of control | [3] 89 % of control

Cn1c(=O)c2[nH]c(C3CCCCCC3)nc2n(C)c1=O
inactive: [4] 87 % of control | [5] 96 % of control | [6] 87 % of control

Nc1ccc(OCC(=O)N2CCOCC2)c(Cl)c1
inactive: [2] 100 % of control | [7] 110 % of control | [3] 102 % of control | [8] 98 % of control | dose: 400.0 mg/kg/injection, schedule: Q01DX009 (ip), vehicle: saline 96 % of control | [9] 101 % of control

CC12CCC(=O)C=C1CCC1C2C(=O)CC2(C)C1CCC2(O)C(=O)COC(=O)c1cc([N+](=O)[O-])cc([N+](=O)[O-])c1N1CC1 (stereo unspecified)
inactive: dose: 60.0 mg/kg/injection, schedule: Q01DX015 (ip), vehicle: saline 94 % of control | dose: 90.0 mg/kg/injection, schedule: Q01DX015 (ip), vehicle: saline 96 % of control | dose: 135.0 mg/kg/injection, schedule: Q01DX015 (ip), vehicle: saline 92 % of control | dose: 200.0 mg/kg/injection, schedule: Q01DX015 (ip), vehicle: saline 100 % of control

NNc1nnc(-c2ccccc2)c2ccccc12
inactive: dose: 15.0 mg/kg/injection, schedule: Q01DX001 (ip), vehicle: carboxymethylcellulose (CMC) 95 % of control | dose: 30.0 mg/kg/injection, schedule: Q01DX001 (ip), vehicle: carboxymethylcellulose (CMC) 101 % of control | [10] 100 % of control

CC1CCc2cc3c4ccccc4n(C)c3cc2C1 (stereo unspecified)
inactive: dose: 75.0 mg/kg/injection, schedule: Q01DX001 (ip), vehicle: carboxymethylcellulose (CMC) 107 % of control | dose: 150.0 mg/kg/injection, schedule: Q01DX001 (ip), vehicle: carboxymethylcellulose (CMC) 109 % of control | dose: 300.0 mg/kg/injection, schedule: Q01DX001 (ip), vehicle: carboxymethylcellulose (CMC) 109 % of control

COc1cc(OC)c(NC(=O)/C=C/c2ccccc2)cc1Cl
inactive: dose: 100.0 mg/kg/injection, schedule: Q01DX009 (ip), vehicle: Klucel (hydroxypropylcellulose) (HPC) 92 % of control | dose: 200.0 mg/kg/injection, schedule: Q01DX009 (ip), vehicle: Klucel (hydroxypropylcellulose) (HPC) 100 % of control | dose: 400.0 mg/kg/injection, schedule: Q01DX009 (ip), vehicle: Klucel (hydroxypropylcellulose) (HPC) 95 % of control

NC(=O)N/N=C1\CCCCC12CCCCC2
inactive: dose: 100.0 mg/kg/injection, schedule: Q04DX003 (ip), vehicle: acetone 95 % of control | dose: 200.0 mg/kg/injection, schedule: Q04DX003 (ip), vehicle: acetone 103 % of control | dose: 400.0 mg/kg/injection, schedule: Q04DX003 (ip), vehicle: acetone 97 % of control

C=CCOCC(O)C[As](=O)(O)c1ccc(OC)cc1 (stereo unspecified)
inactive: dose: 25.0 mg/kg/injection, schedule: Q04DX003 (ip), vehicle: saline with Tween-80 87 % of control

COc1ccccc1-n1c(O)c(N=Nc2ccc(Br)cc2)c(=O)n(-c2ccccc2)c1=S
inactive: dose: 100.0 mg/kg/injection, schedule: Q01DX001 (ip), vehicle: Klucel (hydroxypropylcellulose) (HPC) 102 % of control | dose: 200.0 mg/kg/injection, schedule: Q01DX001 (ip), vehicle: Klucel (hydroxypropylcellulose) (HPC) 121 % of control | dose: 400.0 mg/kg/injection, schedule: Q01DX001 (ip), vehicle: Klucel (hydroxypropylcellulose) (HPC) 102 % of control

CC(Cc1ccccc1)Nc1ccccc1 (stereo unspecified)
inactive: [4] 93 % of control | [5] 100 % of control | [6] 93 % of control | [11] 93 % of control

CC(CN1CCN(CCOCCO)CC1)CN1c2ccccc2Sc2ccc(Cl)cc21 (stereo unspecified)
inactive: dose: 0.09 mg/kg/injection, schedule: Q01DX009 (ip), vehicle: saline 114 % of control | dose: 0.39 mg/kg/injection, schedule: Q01DX009 (ip), vehicle: saline 94 % of control | dose: 0.78 mg/kg/injection, schedule: Q01DX009 (ip), vehicle: saline 96 % of control | dose: 0.78 mg/kg/injection, schedule: Q04DX003 (ip), vehicle: saline 108 % of control | dose: 1.56 mg/kg/injection, schedule: Q01DX009 (ip), vehicle: saline 114 % of control | dose: 1.56 mg/kg/injection, schedule: Q04DX003 (ip), vehicle: saline 110 % of control | dose: 3.12 mg/kg/injection, schedule: Q04DX003 (ip), vehicle: saline 106 % of control | dose: 6.25 mg/kg/injection, schedule: Q04DX003 (ip), vehicle: saline 105 % of control | [1] 111 % of control

CCCCN1C(=O)c2ccccc2C1=O
inactive: dose: 100.0 mg/kg/injection, schedule: Q04DX003 (ip), vehicle: carboxymethylcellulose (CMC) 102 % of control | dose: 200.0 mg/kg/injection, schedule: Q04DX003 (ip), vehicle: carboxymethylcellulose (CMC) 93 % of control | dose: 400.0 mg/kg/injection, schedule: Q04DX003 (ip), vehicle: carboxymethylcellulose (CMC) 101 % of control

CCCCN(C)N=Nc1ccccc1C(=O)O
inactive: dose: 6.25 mg/kg/injection, schedule: Q01DX009 (ip), vehicle: other 100 % of control | dose: 12.5 mg/kg/injection, schedule: Q01DX009 (ip), vehicle: other 103 % of control | dose: 25.0 mg/kg/injection, schedule: Q01DX009 (ip), vehicle: other 108 % of control | dose: 50.0 mg/kg/injection, schedule: Q01DX009 (ip), vehicle: other 110 % of control | dose: 100.0 mg/kg/injection, schedule: Q01DX009 (ip), vehicle: other 123 % of control

CCOC(=O)NNC(=S)Nc1cccc(C(F)(F)F)c1
inactive: dose: 100.0 mg/kg/injection, schedule: Q04DX002 (ip), vehicle: saline with Tween-80 111 % of control | dose: 200.0 mg/kg/injection, schedule: Q04DX002 (ip), vehicle: saline with Tween-80 108 % of control

CCCCCCCCC[As](=O)(O)O
inactive: dose: 1.5 mg/kg/injection, schedule: Q01DX001 (ip), vehicle: carboxymethylcellulose (CMC) 98 % of control | dose: 3.0 mg/kg/injection, schedule: Q01DX001 (ip), vehicle: carboxymethylcellulose (CMC) 104 % of control | [10] 109 % of control

CC[P+](CC=C(C)C)(c1ccccc1)c1ccccc1
inactive: dose: 0.78 mg/kg/injection, schedule: Q04DX003 (ip), vehicle: Klucel (hydroxypropylcellulose) (HPC) 96 % of control | dose: 1.56 mg/kg/injection, schedule: Q04DX003 (ip), vehicle: Klucel (hydroxypropylcellulose) (HPC) 94 % of control | dose: 3.12 mg/kg/injection, schedule: Q04DX003 (ip), vehicle: Klucel (hydroxypropylcellulose) (HPC) 113 % of control and 88 % of control

C=CCCC1(C(C)CC)C(=O)NC(=S)NC1=O (stereo unspecified)
inactive: dose: 75.0 mg/kg/injection, schedule: Q01DX001 (ip), vehicle: saline 100 % of control | dose: 150.0 mg/kg/injection, schedule: Q01DX001 (ip), vehicle: saline 95 % of control | dose: 300.0 mg/kg/injection, schedule: Q01DX001 (ip), vehicle: saline 100 % of control

CCOC(=O)CNC(=O)OCCSc1ccc(C)cc1
inactive: dose: 100.0 mg/kg/injection, schedule: Q01DX009 (ip), vehicle: saline with Tween-80 97 % of control | dose: 200.0 mg/kg/injection, schedule: Q01DX009 (ip), vehicle: saline with Tween-80 93 % of control

O=S(=O)(C1CC1c1ccccc1)N1CCCc2ccccc21 (stereo unspecified)
inactive: [5] 103 % of control | [7] 98 % of control | [6] 103 % of control | [8] 98 % of control | [11] 95 % of control | [9] 104 % of control
